Drawing on patent publication US20060074243A1, “Hydroxamic acid and amide compounds and their use as protease inhibitors” (Pharmacia Corporation, priority 2002, published 2006), this text covers Ki for four compounds.

The structures appear in SMILES notation. pKi: −log10 of the molar value.

What all share (experiment): In vitro MMP inhibition analysis (fluorogenic peptide substrate cleavage), Ki
Holding throughout (format): biochemical
Holding throughout (conditions): Table 2

The target in one assay is T1, Human recombinant MMP-1 (Homo sapiens, UniProt P03956).
T1 construct: made in house; host or cells: MMP-1-transfected HT-1080 cells (spent media)
T1 sequence (P03956 100-469): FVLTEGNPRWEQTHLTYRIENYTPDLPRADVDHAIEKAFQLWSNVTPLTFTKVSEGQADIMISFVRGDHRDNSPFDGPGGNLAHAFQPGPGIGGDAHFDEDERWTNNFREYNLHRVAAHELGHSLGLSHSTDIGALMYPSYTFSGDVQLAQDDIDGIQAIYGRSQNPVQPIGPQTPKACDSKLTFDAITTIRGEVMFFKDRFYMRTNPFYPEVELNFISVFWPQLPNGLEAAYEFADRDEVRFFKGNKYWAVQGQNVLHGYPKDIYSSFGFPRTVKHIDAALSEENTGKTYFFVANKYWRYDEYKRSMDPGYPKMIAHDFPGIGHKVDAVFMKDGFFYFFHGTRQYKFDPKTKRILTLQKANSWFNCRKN
The method in brief: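 APMA- or trypsin-activated recombinant human MMP-1 (purified from transfected HT-1080 medium) with 4 μM MCA/Dpa quenched fluorogenic peptide, 1 h at room temperature in Tris/NaCl/CaCl2 buffer pH 7.5; fluorescence ex 330/em 420 nm. Ki from Morrison-equation fit of rates, substrate at or below Km, uncorrected.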

The next assay deals with T2, Human recombinant MMP-9 (Homo sapiens, UniProt P14780).
T2 construct: made in house; host or cells: MMP-9-transfected HT1080 cells (spent media)
T2 sequence (P14780 107-707 limits assumed): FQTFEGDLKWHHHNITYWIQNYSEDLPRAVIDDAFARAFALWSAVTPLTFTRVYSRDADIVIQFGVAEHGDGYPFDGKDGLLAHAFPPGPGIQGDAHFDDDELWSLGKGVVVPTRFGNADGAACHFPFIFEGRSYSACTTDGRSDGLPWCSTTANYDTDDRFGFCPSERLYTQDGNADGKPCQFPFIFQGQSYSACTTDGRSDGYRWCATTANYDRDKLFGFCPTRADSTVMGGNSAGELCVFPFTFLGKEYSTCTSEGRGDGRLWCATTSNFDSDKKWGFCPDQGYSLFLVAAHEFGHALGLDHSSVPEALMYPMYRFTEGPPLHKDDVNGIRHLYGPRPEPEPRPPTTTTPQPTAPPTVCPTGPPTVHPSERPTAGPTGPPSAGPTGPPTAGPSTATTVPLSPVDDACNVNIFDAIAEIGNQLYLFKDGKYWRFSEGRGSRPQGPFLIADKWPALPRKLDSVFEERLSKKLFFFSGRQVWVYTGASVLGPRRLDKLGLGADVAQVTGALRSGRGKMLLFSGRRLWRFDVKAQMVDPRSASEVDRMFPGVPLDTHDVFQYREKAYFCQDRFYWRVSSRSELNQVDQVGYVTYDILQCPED
The essentials:
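Recombinant MMP-9 purified from transfected HT1080 cell media, activated with APMA, trypsin or recombinant MMP-3, assayed in Tris buffer pH 7.5 with CaCl2 and 4 μM fluorogenic MCA/Dpa peptide, 1 h at room temperature (ex 330/em 420 nm). Ki from Morrison-equation regression of velocity; substrate at or below Km, uncorrected.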

In a further assay the target is T3, Human recombinant MMP-13 (Homo sapiens, UniProt P45452).
T3 construct: made in house; host or cells: baculovirus / insect cells
The essentials:
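Baculovirus-expressed full-length MMP-13 proenzyme was purified on heparin-agarose and zinc-chelate columns, then APMA-activated. It cleaved 4 μM MCA/Dpa fluorogenic peptide in 100 mM Tris-HCl, 100 mM NaCl, 10 mM CaCl2, 0.05% Brij-23, pH 7.5, for 1 h at room temperature (ex 330/em 420 nm). Ki came from Morrison-equation fits with substrate ≤Km, uncorrected.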

The pKi is the negative decadic logarithm of the Ki, by convention in mol/L.

`O=C(NO)C1(S(=O)(=O)c2ccc(-c3ccc(OCC(F)(F)C(F)F)c(C(F)(F)F)c3)cc2)CCOCC1` [Example 85]: the pKi at Human recombinant MMP-1 was below 5.00; at Human recombinant MMP-9, 6.61; at Human recombinant MMP-13 it was 7.83.
The corresponding values for `C#CCN(C)C(=O)c1ccc2cc(-c3ccc(S(=O)(=O)C4(C(=O)NO)CCOCC4)cc3)ccc2c1` [Example 216] are 5.73, 7.88 and 9.24.
The corresponding values for `O=C(Cc1ccc(-c2ccc(S(=O)(=O)C3(C(=O)NO)CCOCC3)cc2)nc1)N1CCCCC1` [Example 212] are below 5.00, 6.36 and 9.17.
The corresponding values for `CCCCOc1ccc(-c2ccc(S(=O)(=O)C3(C(=O)NO)CCOCC3)cc2)cc1C(F)(F)F` [Example 78] are below 5.00, 6.88 and 7.78.
